# Laboratory results reported in patent US11773368B2, “Culture method for differentiating primordial germ cells into functionally mature oocytes” (TOKYO UNIVERSITY OF AGRICULTURE, priority 2015, dated 2023).
# Key:
# Format in all cases: cell-based, mouse
# in vitro-matured eggs = experiment: In vitro fertilization and embryo transfer with in vitro-mature egg
# Protocol: After 17 hours of the culture, the eggs with expanded cumulus cells were transferred into TYH medium (LSI Medience Corporation) and fertilized with epididymal sperm. In (ii) SPS group, (iv) FBS/SPS group, (v) FBS/ICI group, about 27 to 58% of eggs which processed for in vitro fertilization (IVF) were normally fertilized. Normally fertilized eggs with 2 pronuclei were cultured in KSOM medium. About 83 to 97% Embryos from the fertilized eggs developed to the 2-cell stage. The embryos developed to the 2-cell stage by the culture were transferred into the oviducts of pseudopregnant females at 0.5 dpc. Offspring were delivered by natural means or by caesarean section at 19.5 dpc. As a result, about 14 to 40% of the transferred embryos developed to offspring. The obtained offspring were raised by foster mothers. The offspring were weaned at about 4 weeks of age. […] As mentioned above, there has been no report that eggs obtained by in vitro culture in which the primordial germ cell was used as the starting material developed to offspring. […] In in vitro culture method for producing the functional egg from the primordial germ cell according to this invention, seven pups from one ovary were obtained at a maximum, and on average, 0.3 to 3.3 pups were obtained from one ovary. Pups were physically normal, and they developed normally. Male and female mice developed from eggs differentiated and matured in in vitro culture could produce the offspring after sexual maturation (Table. 2 and FIG. 12).
# [1] = system: ovaries cultured for 17 days; experiment: Histological analysis of ovary obtained by in vitro culture (H&E, laminin immunofluorescence)
# Protocol: The ovaries cultured for 17 days in (i) FBS group or (v) FBS/10 μM ICI group and the ovaries from female mouse at 10 days after birth were processed for hematoxylin-eosin staining and laminin immunofluorescence staining.
# Concretely, the ovaries were fixed for 4 hours at room temperature in 1% paraformaldehyde (PFA)/0.1% glutaraldehyde in 0.05 M phosphate buffer. For H&E staining, the ovaries were embedded in paraffin blocks after a routine protocol, and 4-μm-thick serial sections were prepared. After H&E staining, sections were observed under an IX71 microscope (Olympus). For laminin immunofluorescence staining, ovaries were cut into four to eight pieces, and the tissue sections were incubated for 3 days at 4° C. with an anti-laminin rabbit polyclonal antibody (Abcam) at a dilution of 1:100. Then the tissue sections of the ovaries were incubated for 3 days at 4° C. with an Alexa Fluor 488-conjugated goat anti-rabbit IgG at a dilution of 1:500 (Molecular Probes, Thermo Fisher Scientific Inc.). The obtained tissue sections of the ovaries were further processed for 4′,6-diamidino-2-phenylindole (DAPI; Life Technologies) staining. The tissue sections of the ovaries were observed under Zeiss LSM 710 confocal microscope.
# [2] = system: secondary follicles from in vitro cultured gonads; experiment: In vitro growth culture of secondary follicle
# Protocol: The secondary follicles obtained by the in vitro organ culture of the gonads from the fetuses was processed for in vitro growth culture. […] In this example, the culture was performed with the medium supplemented with PVP which is the high-molecular-weight compound. Furthermore, the inventor found out that oocytes can develop to functional eggs by dissociating a part of the cell layers between a granulosa cell layer and a thecal cell layer which constitute a secondary follicle. Accordingly, in this example, the in vitro culture of the follicle includes a step of partial dissociation between the granulosa cell layer and the thecal cell layer. More concretely, the in vitro culture of the follicle was performed as follows.
# After the culture of “1. In vitro organ culture of gonad” for 17 days mentioned above, the cultured gonads (ovaries) were transferred to L15 medium and the secondary follicles formed in the gonads were isolated from the gonads, using a fine Tungsten needle. The secondary follicles were further cultured in α-MEM supplemented with 2% (w/v) PVP, 5% FBS, and 0.1 IU/mL FSH (FOLLISTIM Injection 50; MSD). The secondary follicles were cultured on a Millicell membrane (0.4-μm pore size, 27-mm diameter; Merck Millipore) in a 35-mm culture dish (Falcon, Corning). On day 3 of the culture, the secondary follicles were transferred to 0.1% collagenase type I (Worthington Biochemicals) containing L15 medium and treated for 15 min at 37° C. Then, the theca cell layer of the secondary follicles was removed by pipetting with a pulled fine-glass capillary. Fifty to 60 secondary follicles were cultured on Transwell®-COL or Millicell membranes for another 9 to 13 days at 37° C. in the medium under 5% CO2 and 95% air. The inside and outside of the membrane insert were filled with 1 mL and 2 mL medium, respectively. Approximately half the medium in each well was replaced with fresh medium every other day.
# [3] = FBS/1 μM ICI group (ICI day 5-11)
# [4] = FBS/1 μM ICI group (ICI day 5-11), 19 cultured gonads
# [5] = FBS/5 μM ICI group (ICI day 5-11)
# [6] = FBS/5 μM ICI group (ICI day 5-11), 6 cultured gonads
# [7] = FBS/10 μM ICI group (ICI day 5-11)
# [8] = FBS/10 μM ICI group (ICI day 5-11), 6 cultured gonads
# [9] = Vitrification FBS/1 μM ICI (vitrified-warmed gonads)
# [10] = Vitrification FBS/1 μM ICI (vitrified-warmed gonads), 4 cultured gonads
smiles,measurement,setting,value
"C[C@]12CC[C@@H]3c4ccc(O)cc4C[C@@H](CCCCCCCCC[S+]([O-])CCCC(F)(F)C(F)(F)F)[C@H]3[C@@H]1CC[C@@H]2O (stereo partly drawn) [ICI, 7α, 17β-[9-([4,4,5,5,5-pentafluoropentyl]sulfinyl)nonyl]estra-1,3,5(10)-triene-3,17-diol]","No. of eggs fertilized normally, proportion to the number of collected follicles",in vitro-matured eggs; [3],26.2%
same,"No. of embryos developed to two-cell, proportion to the number of collected follicles",in vitro-matured eggs; [3],24.2%
same,"No. of pups developed from embryos, proportion to the number of collected follicles",in vitro-matured eggs; [3],4.8%
same,No. of pups from an ovary,in vitro-matured eggs; [3],1.6
same,No. of eggs fertilized normally,in vitro-matured eggs; [4],168
same,No. of embryos developed to two-cell,in vitro-matured eggs; [4],155
same,No. of pups developed from embryos,in vitro-matured eggs; [4],31
same,"No. of eggs fertilized normally, proportion to the number of collected follicles",in vitro-matured eggs; [5],30.1%
same,"No. of embryos developed to two-cell, proportion to the number of collected follicles",in vitro-matured eggs; [5],29.2%
same,"No. of pups developed from embryos, proportion to the number of collected follicles",in vitro-matured eggs; [5],6.4%
same,No. of pups from an ovary,in vitro-matured eggs; [5],3.3
same,No. of eggs fertilized normally,in vitro-matured eggs; [6],94
same,No. of embryos developed to two-cell,in vitro-matured eggs; [6],91
same,No. of pups developed from embryos,in vitro-matured eggs; [6],20
same,"No. of eggs fertilized normally, proportion to the number of collected follicles",in vitro-matured eggs; [7],29.3%
same,"No. of embryos developed to two-cell, proportion to the number of collected follicles",in vitro-matured eggs; [7],27.3%
same,"No. of pups developed from embryos, proportion to the number of collected follicles",in vitro-matured eggs; [7],3.8%
same,No. of pups from an ovary,in vitro-matured eggs; [7],3.2
same,No. of eggs fertilized normally,in vitro-matured eggs; [8],148
same,No. of embryos developed to two-cell,in vitro-matured eggs; [8],138
same,No. of pups developed from embryos,in vitro-matured eggs; [8],19
same,"No. of eggs fertilized normally, proportion to the number of collected follicles",in vitro-matured eggs; [9],33.3%
same,"No. of embryos developed to two-cell, proportion to the number of collected follicles",in vitro-matured eggs; [9],26.3%
same,"No. of pups developed from embryos, proportion to the number of collected follicles",in vitro-matured eggs; [9],3.5%
same,No. of pups from an ovary,in vitro-matured eggs; [9],0.5
same,No. of eggs fertilized normally,in vitro-matured eggs; [10],19
same,No. of embryos developed to two-cell,in vitro-matured eggs; [10],15
same,No. of pups developed from embryos,in vitro-matured eggs; [10],2
same,laminin localization (immunofluorescence),"[1]; (v) FBS/10 μM ICI group, day 17",laminin is circularly localized around the follicle
same,multioocyte follicle (multiple oocytes in one follicle),"[1]; (v) FBS/ICI group, FIG. 5b",very few
same,"No. of collected COCs, proportion to the number of collected follicles",[2]; [3],53.0%
same,No. of collected COCs,[2]; [4],340
same,"No. of collected COCs, proportion to the number of collected follicles",[2]; [5],57.1%
same,No. of collected COCs,[2]; [6],178
same,"No. of collected COCs, proportion to the number of collected follicles",[2]; [7],55.6%
same,No. of collected COCs,[2]; [8],281
same,average diameter of the oocytes obtained by the in vitro culture,"[2]; FBS/10 μM ICI group, n=85",80.0 μm
same,"No. of collected COCs, proportion to the number of collected follicles",[2]; [9],68.4%
same,No. of collected COCs,[2]; [10],39
